The source made the active and inactive calls. The rule behind the calls is not given here.
Molecular target: Calpain-2 catalytic subunit (Sus scrofa) (UniProt P43367)
Assay: m-calpain protease blockers, concentration series – biochemical, fluorogenic peptide substrate, dose response (AID 1420)
Conditions: purified calpain II, 30 min

Sequence of Calpain-2 catalytic subunit (Sus scrofa) (P43367 whole entry, looked up): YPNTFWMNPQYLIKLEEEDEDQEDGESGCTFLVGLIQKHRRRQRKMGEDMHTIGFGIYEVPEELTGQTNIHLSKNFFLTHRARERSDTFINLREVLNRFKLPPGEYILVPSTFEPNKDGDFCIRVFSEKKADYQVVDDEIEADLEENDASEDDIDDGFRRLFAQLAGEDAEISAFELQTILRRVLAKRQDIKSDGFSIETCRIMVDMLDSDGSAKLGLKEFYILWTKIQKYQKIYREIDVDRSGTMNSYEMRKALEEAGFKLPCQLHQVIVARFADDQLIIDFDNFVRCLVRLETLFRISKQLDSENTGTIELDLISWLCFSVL

- IC50: inactive
Compound: CC(C)(C)C1CCC(=NNc2ccc(S(N)(=O)=O)cc2[N+](=O)[O-])CC1 (stereo unspecified)

Source: PubChem BioAssay AID1420 (Emory University Molecular Libraries Screening Center, 2008)
